Experiments:
Type in all cases: cell-based, human
H929 cells = assay: IncuCyte Zoom NK cell killing of H929; settings: bortezomib 10 nM or lenalidomide 5 μM with B7-H3-TriKE and NK cells, 48 hours
Text: (§1) FIGS. 8A-8D illustrate the ability of peripheral blood NK cells with or without B7-H3-TriKE to kill myeloma cells in live imaging IncuCyte Zoom assays. FIG. 8A is a graph showing the effects with effector:target (E:T) ratios of 2:1 and 4:1 on H929 cells. FIG. 8B is a graph showing the effects with effector:target (E:T) ratios of 2:1 and 4:1 on MM1S cells. FIG. 8C is a graph showing the effects with effector:target (E:T) ratios of 2:1 and 4:1 on RPMI-8226 cells. FIG. 8D is a graph showing the effects with effector:target (E:T) ratios of 2:1 and 4:1 on U266 cells.
(§2) FIGS. 9A-9D illustrate the efficacy of B7-H3-TriKE with the proteasome inhibitor bortezomib (10 nM) and the immunomodulatory drug lenalidomide (5 μM). FIG. 9A is a graph showing the effect of the combination therapy on H929 cells after 48 hours. FIG. 9B is a graph showing the effect of the combination therapy on RPMI-8226 cells after 48 hours. FIG. 9C is a graph showing the effect of the combination therapy on MM1S cells after 48 hours. FIG. 9D is a graph showing the effect of the combination therapy on U266 cells after 48 hours.
(§3) The ability of peripheral blood NK cells with or without B7-H3-TriKE to kill myeloma cells was compared in live imaging IncuCyte Zoom assays with escalating doses of TriKE. Maximal killing occurred with 3 nM concentration.
(§4) The efficacy of B7-H3-TriKE with the proteasome inhibitor bortezomib (10 nM) and the immunomodulatory drug lenalidomide (5 μM) was also tested. Cytotoxicity curves were compared by repeated measures ANOVA and performed in triplicate.

RPMI-8226 cells = assay: IncuCyte Zoom NK cell killing of RPMI-8226; settings: bortezomib 10 nM or lenalidomide 5 μM with B7-H3-TriKE and NK cells, 48 hours
Text: as §1, §2, §3, §4

MM1S cells = assay: IncuCyte Zoom NK cell killing of MM1S; settings: bortezomib 10 nM or lenalidomide 5 μM with B7-H3 TriKE and NK cells, 48 hours; not statistically significant
Text: (§5) FIGS. 7A-7B illustrate the ability of peripheral blood NK cells with or without B7-H3-TriKE to kill myeloma cells in live imaging IncuCyte Zoom assays. FIG. 7A is a graph showing the effects with effector:target (E:T) ratios of 2:1 and 4:1 on MM1S cells. FIG. 7B is a graph showing the effects with effector:target (E:T) ratios of 2:1 and 4:1 on U266 cells.
as §1, §2, §3, §4

U266 cells = assay: IncuCyte Zoom NK cell killing of U266; settings: bortezomib 10 nM with B7-H3-TriKE and NK cells, 48 hours
Text: as §5, §1
FIGS. 9A-9D illustrate the efficacy of B7-H3-TriKE with the proteasome inhibitor bortezomib (10 nM) and the immunomodulatory drug lenalidomide (5 μM). FIG. 9A is a graph showing the effect of the combination therapy on H929 cells after 48 hours. FIG. 9B is a graph showing the effect of the combination therapy on RPMI-8226 cells after 48 hours. FIG. 9C is a graph showing the effect of the combination therapy on MM1S cells after 48 hours. […]

[1] = system: OVCAR8 ovarian cancer cells; assay: NK cell CD107a / IFNγ flow cytometry against OVCAR8; settings: individual components with PBMCs and OVCAR8
Experimental: FIG. 29A is a graph illustrating pooled proportion of NK cells from healthy donors expressing CD107a+ (degranulation) against OVCAR8 and MA148 targets. FIG. 29B is a graph illustrating pooled proportion of NK cells from healthy donors expressing IFNγ cytokine production against OVCAR8 and MA148 targets.
Healthy donor or ovarian cancer PBMC cells were incubated with ovarian tumor targets at 2:1 E:T ratio for 4 hrs with 30 nM TriKE or control condition. FIG. 30A is a graph illustrating pooled proportion of NK cells from healthy donors expressing CD107a+ (degranulation) against OVCAR8 targets (N=8). FIG. 30B is a graph illustrating pooled proportion of NK cells from healthy donors expressing IFNγ cytokine production against OVCAR8 targets (N=8). FIG. 30C is a graph illustrating pooled proportion of NK cells from healthy donors expressing CD107a+ (degranulation) against OVCAR3 targets (N=4). FIG. 30D is a graph illustrating pooled proportion of NK cells from healthy donors expressing IFNγ cytokine production against OVCAR3 targets (N=4). FIG. 30E is a graph illustrating pooled proportion of NK cells from healthy donors expressing CD107a+ (degranulation) against OVCAR5 targets (N=7). FIG. 30F is a graph illustrating pooled proportion of NK cells from healthy donors expressing IFNγ cytokine production against OVCAR5 targets (N=7). […] FIG. 30I is a graph illustrating that tumor killing was evaluated using IncuCyte imaging assay. […] The percentage of Live (Nuclight Red+Caspase 3/7−) tumor cells was quantified over a 48-h period and normalized to tumor alone. Readings were obtained every 15 min (representative of four separate experiments). * p<0.05, ** p<0.01, *** p<0.001, and **** p<0.0001.
ADCC was measured in a flow cytometry assay by evaluating degranulation via CD107a (lysosomal-associated membrane protein LAMP-1) and intracellular IFNγ production. […] Samples were washed and evaluated in an LSRII flow cytometer (BD Biosciences, San Jose, CA, USA).
The ability of cam1615B7-H3 TriKE to mediate NK cell activity against ovarian cancer cells was evaluated. […]

T cells (CD56−CD3+) = assay: T cell proliferation in PBMCs, CellTrace Violet dilution; settings: 7 days, 5 nM equimolar
Experimental: FIGS. 2A-2H illustrates that cam1615B7-H3 TriKE induces potent, and specific, natural killer (NK) cell proliferation. Peripheral blood mononuclear cells (PBMCs) were CellTrace Violet labeled and incubated for seven days at 5 nM equimolar concentrations of rhIL-15 or cam1615B7-H3 TriKE. On day 7, the cells were harvested and stained for flow cytometric evaluation. […] FIG. 2B is a graph illustrating pooled data showing the overall proportion of NK cells that proliferated. FIG. 2C is a graph illustrating pooled data showing the proportion of NK cells that highly proliferated (measured as proliferation beyond three divisions). FIG. 2D is a graph illustrating pooled data showing NK cell counts in the cultures (N=9). FIG. 2E is a representative histogram showing T cell (CD56− CD3+) proliferation. FIG. 2F is a graph illustrating pooled data showing the overall proportion of T cells proliferated. FIG. 2G is a graph illustrating pooled data showing the proportion of T cells highly proliferated. FIG. 2H is a graph illustrating pooled data showing T cell counts in the cultures (N=9). * p<0.05, ** p<0.01, *** p<0.001.
The wild-type IL-15 moiety in the cam1615B7-H3 TriKE was designed to induce targeted delivery of a proliferative signal to NK cells. To test this, proliferation assays evaluating dilution of a CellTrace dye over a 7-day period were carried out on PBMCs treated with no treatment (NT), monomeric rhIL-15 (IL15), or the TriKE (cam1615B7-H3). At the end of the seven days, cells were harvested and proliferation was evaluated by gating on CD56+CD3− cells. […] Since IL-15 acts on both NK cells and T cells, specificity was evaluated next by gating on T cells (CD56-CD3+).
To measure the ability of the TriKE to specifically induce NK cell expansion via the IL-15 moiety, PBMCs from healthy donors were labeled with CellTrace Violet Proliferation Dye (Invitrogen, Carlsbad, CA, USA) according to kit specifications. After staining, cells were cultured with TriKEs at noted concentrations, or equimolar concentrations of controls, and incubated in a humidified atmosphere containing 5% CO2 at 37° C. for seven days. Cells were harvested, stained for viability with Live/Dead reagent (Invitrogen, Carlsbad, CA, USA) and surface stained for anti-CD56 PE/Cy7 (Biolegend, San Diego, CA, USA) and anti-CD3 PE-CF594 (BD Biosciences, Franklin Lakes, NJ, USA) to gate on the viable CD56+ CD3− NK cell population or the CD56-CD3+ T cell population. Data analysis was performed using FlowJo software (FlowJo LCC, version 7.6.5, Ashland, OR, USA).

Nc1cccc2c1CN(C1CCC(=O)NC1=O)C2=O (stereo not drawn) [lenalidomide]
killing of H929 in combination therapy (H929 cells): synergistic killing
killing of RPMI-8226 in combination therapy (RPMI-8226 cells): synergistic killing
killing of MM1S in combination therapy (MM1S cells): trend toward improved killing

CC(C)C[C@H](NC(=O)[C@H](Cc1ccccc1)NC(=O)c1cnccn1)B(O)O [bortezomib, reference compound]
killing of H929 in combination therapy (H929 cells): did not further enhance killing
killing of RPMI-8226 in combination therapy (RPMI-8226 cells): synergistic killing
killing of U266 in combination therapy (U266 cells): enhanced killing
killing of MM1S in combination therapy (MM1S cells): trend toward improved killing

rhIL-15: monomeric recombinant human IL-15 control [reference compound]
NK cell activity against OVCAR8 by individual components [1]: do not enhance NK cell activity
overall T cell proliferation (T cells (CD56−CD3+)): robust proliferation of T cells

Source: US20250145715A1, “B7-H3 TARGETING FUSION PROTEINS AND METHODS OF USE THEREOF” (GT Biopharma, Inc., priority 2021, published 2025)
